Results reported in publication PMC9141242, “Enhanced Soluble Expression of Linoleic Acid Isomerase by Coordinated Regulation of Promoter and Fusion Tag in Escherichia coli” (Foods, 2022).

Target: T1, MBP-PAI (Cutibacterium acnes, UniProt Q6A8X5)
T1 construct: gene PPA1039; PAI (about 50 kDa); synthesized gene in pET-24a(+), E. coli BL21(DE3)
T1 sequence (Q6A8X5 1-424): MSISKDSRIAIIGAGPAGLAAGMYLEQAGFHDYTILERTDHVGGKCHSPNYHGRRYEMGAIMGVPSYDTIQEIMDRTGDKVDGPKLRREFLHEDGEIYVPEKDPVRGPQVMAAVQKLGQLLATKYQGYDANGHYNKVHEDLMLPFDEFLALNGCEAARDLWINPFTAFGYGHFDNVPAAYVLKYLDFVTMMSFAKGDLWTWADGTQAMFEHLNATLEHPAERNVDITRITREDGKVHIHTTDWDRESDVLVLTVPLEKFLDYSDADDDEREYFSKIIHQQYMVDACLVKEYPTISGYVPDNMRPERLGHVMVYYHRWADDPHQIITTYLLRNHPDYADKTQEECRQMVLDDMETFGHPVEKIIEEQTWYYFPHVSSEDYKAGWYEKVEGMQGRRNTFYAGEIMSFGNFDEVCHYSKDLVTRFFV
Test: spectrophotometry at […] nm, CLA formation, Lineweaver-Burk
Format: biochemical
Settings: optimal conditions (37 °C, pH 7.5, 1 mmol/L Tween-20); LA 71-1428 μM; MBP tag not cleaved; apparent

SMILES: CCCCC/C=C\C/C=C\CCCCCCCC(=O)O [linoleic acid]
- Km: 254 µM
